Experimental data from patent US8691762B2, “Methods and assays for treating subjects with SHANK3 deletion, mutation or reduced expression” (Mount Sinai School of Medicine, priority 2010, dated 2014).
“Also recorded” adds a separate entry of the source.

Tests used:
Shank3 heterozygous mice [1] = assay: Long-term potentiation at Schaffer collateral-CA1 synapses, hippocampal slices from treated Shank3 heterozygous mice; format: in vivo, mouse; conditions: for LTP (normalized field EPSP slope), higher dose: rhIGF-1 i.p. 240 μg/kg/day for 2 weeks from P13-15
Experimental: FIG. 8. […] Ampakine CX1837 or HPCD vehicle is administered daily via i.p. injections (1.5 mg/kg body weight) starting at 2 weeks old and continued for 4 weeks for electrophysiological recordings.
(§1) FIG. 10A-10B. Recombinant human IGF-1 (rhIGF-1) reverses deficits in long-term potentiation and basal synaptic properties at Schaffer collateral-CA1 synapses in Shank3 heterozygous mice in a dose-dependent fashion. rhIGF-1 is administered daily via i.p. injections (120 or 240 μg/kg body weight) starting at P13-15 and continued for 2 weeks for electrophysiological recordings. A. LTP was induced with high-frequency stimulation and normalized field EPSP slope was plotted as a function of time. […] B. AMPA receptor responses were assessed in the mice. Slices were incubated in the presence of APV and mean field EPSP slope as a function of fiber volley is shown for slices derived from wildtype (WT), Shank3 heterozygous (Het) mice, and Het injected with rhIGF-1. Deficits in AMPA receptor signaling observed in Shank3 heterozygotes were reversed with 2-week rhIGF-1 treatment.

Shank3 KO mice = conditions: (1-3)IGF-1 peptide, same protocol as heterozygotes, N=2
Experimental: Brief experimental procedures: Hippocampal slices (350 μm) are prepared from 1-3 month old Shank3 heterozygous, Shank3 knockout, and wildtype littermates, treated with (1-3) IGF-1 peptide, full-length IGF1, growth hormone, AMPAkine or saline or other appropriate control. Slices are perfused with Ringer's solution, bubbled with 95% O2/5% CO2, at 32° C., during extracellular recordings. Baseline of field excitatory postsynaptic potentials (fEPSPs) recorded from stratum radiatum in area CA1, evoked by stimulation of the Schaffer collateral-commissural afferents with bipolar tungsten electrodes placed into area CA3. Long-term potentiation (LTP) is induced either by a high-frequency stimulus (four trains of 100 Hz, 1 s stimulation separated by 5 min), or by theta-burst stimulation (TBS) (10 bursts of four pulses at 100 Hz separated by 200 ms), with a success rate >90% for control and genetically-modified animals with all stimulation protocols. To induce long-term depression (LTD), Schaffer collaterals were stimulated by a low frequency stimulus (900 pulses at 1 Hz for 15 min) or paired-pulse low frequency stimulus. LTD was induced with a success rate >90% for control animals. […]

AMPA receptor = AMPA receptor component of I/O function (field EPSP slope vs fiber volley in presence of APV); format: in vivo, mouse; conditions: Shank3 Het
Experimental: as §1
IGF-1 has been approved for clinical use as a recombinant full-length protein. Full-length IGF-1 enters the CNS through an interaction with lipoprotein-related receptor 1 (LRP1), after activity dependent cleavage of IGF binding protein-3 (IGFBP-3) by matrix metalloproteinase-9 (MMP9) (Nishijima et al., 2010). […]

Akt = assay: Western blot for total- and phospho-Akt in hippocampus; format: in vivo, mouse
Text: FIG. 6. IGF1 treatment activates PI3K-Akt pathway in the hippocampus. PI3K binds to AMPARs and is required to maintain AMPAR surface expression during long-term potentiation.
It is interesting to note that IGF-1 activates the mTOR/Akt pathway as this has been implicated in other neurodevelopmental disorders (Veenstra-Vanderweele et al., 2012).

Shank3 heterozygous mice [2] = assay: Motor performance and learning, latency to fall off a rotating rod; format: in vivo, mouse; conditions: IGF-1 240 μg/kg/day for 2 weeks; male Shank3 Het vs vehicle
Experimental: FIG. 11. IGF-1 treatment reverses motor deficits in Shank3 heterozygous mice.
Phelan-McDermid syndrome frequently presents with hypotonia and at least transient motor deficits, and subtle motor deficits have been observed in Shank3-heterozygous mice (Bozdagi et al., 2010). To determine whether treatment with full-length IGF-1 may improve motor performance in Shank3-deficient mice, male heterozygous mice were treated with either vehicle or IGF-1 (240 μg/kg/day for 2 weeks).

Row | Substance | LTP (normalized field EPSP slope) (Shank3 heterozygous mice [1]; (1-3)IGF-1 i.p. 0.01 mg/g (10 μg/g/day) daily for 2 weeks from P13-15, Shank3 Het vs vehicle) | LTP (fEPSP versus time) (Shank3 KO mice) | LTP (normalized field EPSP slope), lower dose (Shank3 heterozygous mice [1]; rhIGF-1 i.p. 120 μg/kg/day for 2 weeks, Shank3 Het) | LTP (normalized field EPSP slope), higher dose (Shank3 heterozygous mice [1]; Shank3 Het) | LTP (normalized field EPSP slope), higher dose (Shank3 heterozygous mice [1]; Shank3 Het, listed as rhIGF-1) | Mean slope of the I/O function (AMPA receptor component) (AMPA receptor; IGF-1 240 μg/kg/day i.p. 2 weeks, wildtype 0.625±0.08, untreated Het 0.31±0.045, p=0.004) | Deficits in AMPA receptor signaling (AMPA component of I/O function) (AMPA receptor; rhIGF-1 i.p. 240 μg/kg/day for 2 weeks, slices in APV) | phospho-Akt/Akt ratio (Akt; hippocampal lysates, Shank3 Het injected 2 weeks, n=10, vehicle 0.36±0.03 (n=8), 1-tailed p=0.040) | phosphorylation of Akt (pAkt1) (Akt; hippocampus, heterozygote mice, vs vehicle injected, n=3, P=0.0366) | Latency to fall off rotating rod / motor performance (Shank3 heterozygous mice [2])
1 | glycine-proline-glutamic acid [(1-3)IGF-1] | reversed; also recorded: restored normal hippocampal LTP | reversed the impairment in LTP |  |  |  |  |  |  |  | 
2 | IGF-1: recombinant human IGF-1, a 7.6 kDa protein, SEQ ID NO:3 |  |  | not associated with significant reversal | effective in rescuing defective LTP | reversed by the higher | 0.618±0.075 | reversed | 0.55±0.04 | increase | significantly longer latencies; also recorded: Significant enhancement of motor performance
